Source: US7381554B2, “UDP-N-acetylglucosamine: galactose-β1,3-N-acetylgalactosamine-α-R/N-acetylglucosamine-β1,3-N-acetylgalactosamine-α-R (GlcNAc to GalNAc) β1,6-N-acetylglucosaminyltransferase, C2/4GnT” (Glycozym ApS, priority 1998, dated 2008)

How the values were obtained:
C2/4GnT = target: T1, C2/4GnT (Homo sapiens, UniProt O95395); experiment: C2/4GnT GlcNAc-transferase activity assay with acceptor/donor substrates; format: biochemical; settings: for Substrate specificity: C2/4GnT activity, 2 mM: acceptor substrate 2 mM; for Substrate specificity: C2/4GnT activity, 2 mM / Substrate specificity: C2/4GnT activity, 10 mM: partially purified media of infected High Five cells, background subtracted; for Substrate specificity: C2/4GnT activity, 10 mM: acceptor substrate 10 mM; for C2/4GnT activity with acceptor substrate (in words): as acceptor substrate; for Substrate inhibition of C2/4GnT enzyme activity: high acceptor concentrations up to 20 mM; for C2/4GnT activity with donor substrate (in words): as donor substrate, data not shown
T1 construct: An expression construct designed to encode amino acid residues 31-438 of C2/4GnT was prepared by PCR using P1 DNA; gp67 secretion signal of vector pAcGP67A (own knowledge of the vector); made in house; host or cells: Sf9 cells (culture supernatant, standard assays); High Five cells (partially purified enzyme, kinetics)
T1 sequence (O95395 31-438): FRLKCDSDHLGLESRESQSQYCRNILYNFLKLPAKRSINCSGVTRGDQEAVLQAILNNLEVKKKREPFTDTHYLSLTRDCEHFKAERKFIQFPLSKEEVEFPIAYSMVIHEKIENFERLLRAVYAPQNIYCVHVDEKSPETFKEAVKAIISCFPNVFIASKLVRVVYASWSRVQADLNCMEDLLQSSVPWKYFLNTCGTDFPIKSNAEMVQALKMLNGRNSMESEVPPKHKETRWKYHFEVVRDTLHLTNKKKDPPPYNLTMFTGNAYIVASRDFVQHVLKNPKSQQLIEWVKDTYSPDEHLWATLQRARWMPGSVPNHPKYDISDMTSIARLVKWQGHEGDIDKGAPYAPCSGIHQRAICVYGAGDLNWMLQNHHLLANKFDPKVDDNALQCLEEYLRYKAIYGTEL
Experimental: (§1) An expression construct designed to encode amino acid residues 31-438 of C2/4GnT was prepared by PCR using P1 DNA, and the primer pair TSHC55 (5′-[…]-3′) (SEQ ID NO:8) and TSHC45 (SEQ ID NO:5) (FIG. 2). The PCR product was cloned into the EcoRI site of pAcGP67A (PharMingen), and the insert was fully sequenced. pAcGP67-C2/4GnT-sol was co-transfected with Baculo-Gold™ DNA (PharMingen) as described previously (14). Recombinant Baculo-virus were obtained after two successive amplifications in Sf9 cells grown in serum-containing medium, and titers of virus were estimated by titration in 24-well plates with monitoring of enzyme activities.
(§2) Controls included the pAcGP67-GalNAc-T3-sol (15). The kinetic properties were determined with partially purified enzymes expressed in High Five™ cells. Partial purification was performed by consecutive chromatography on Amberlite IRA-95, DEAE-Sephacryl and CM-Sepharose essentially as described (16).
as §1, with “sequenced. Plasmids” for “sequenced.”, “pAcGP67-C2/4GnT-sol and pAcGP67-C2GnT-sol were” for “pAcGP67-C2/4GnT-sol was”, “activities. Controls included the pAcGP67-GalNAc-T3-sol (15).” for “activities.”
(§3) Standard assays were performed using culture supernatant from infected cells in 50 μl reaction mixtures containing 100 mM MES […], 10 mM EDTA, 10 mM 2-Acetamido-2-deoxy-D-glucono-1,5-lacton, 180 μM UDP-[^14C]-GlcNAc (6,000 cpm/nmol) (Amersham Pharmacia Biotech), and the indicated concentrations of acceptor substrates (Sigma and Toronto Research Laboratories Ltd., see Table I for structures). Semi-purified C2/4GnT was assayed in 50 μl reaction mixtures containing 100 mM MES (pH 7), 5 mM EDTA, 90 μM UDP-[^14C]-GlcNAc (3,050 cpm/nmol) (Amersham Pharmacia Biotech), and the indicated concentrations of acceptor substrates. Reaction products were quantified by chromatography on Dowex AGI-X8.

C2GnT = target: T2, C2GnT (Homo sapiens, UniProt Q02742); experiment: C2GnT GlcNAc-transferase activity assay with acceptor substrates; format: biochemical; settings: partially purified media of infected High Five cells, background subtracted; for Substrate specificity: C2GnT activity, 2 mM: acceptor substrate 2 mM; for Substrate specificity: C2GnT activity, 10 mM: acceptor substrate 10 mM
T2 construct: Plasmids pAcGP67-C2/4GnT-sol and pAcGP67-C2GnT-sol were co-transfected with; gp67 secretion signal of vector pAcGP67 (own knowledge of the vector); made in house; host or cells: Sf9 cells (baculovirus, culture supernatant)
T2 sequence (Q02742 33-428 limits assumed): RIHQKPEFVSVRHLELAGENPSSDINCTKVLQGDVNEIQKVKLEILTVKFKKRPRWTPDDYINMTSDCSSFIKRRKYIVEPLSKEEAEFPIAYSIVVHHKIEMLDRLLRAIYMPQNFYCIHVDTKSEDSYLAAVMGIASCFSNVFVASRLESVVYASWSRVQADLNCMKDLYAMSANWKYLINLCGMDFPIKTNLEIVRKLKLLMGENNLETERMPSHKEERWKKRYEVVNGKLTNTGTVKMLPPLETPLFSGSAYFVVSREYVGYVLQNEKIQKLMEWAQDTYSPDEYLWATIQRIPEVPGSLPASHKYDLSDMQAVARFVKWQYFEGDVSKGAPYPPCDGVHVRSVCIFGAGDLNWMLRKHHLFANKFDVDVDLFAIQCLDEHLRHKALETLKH
Experimental: as §2
as §1, with “sequenced. Plasmids” for “sequenced.”, “pAcGP67-C2/4GnT-sol and pAcGP67-C2GnT-sol were” for “pAcGP67-C2/4GnT-sol was”, “activities. Controls included the pAcGP67-GalNAc-T3-sol (15).” for “activities.”
as §3

Row | SMILES | Substrate specificity: C2/4GnT activity, 2 mM (C2/4GnT) [nmol/h/mg] | Substrate specificity: C2/4GnT activity, 10 mM (C2/4GnT) [nmol/h/mg] | C2/4GnT activity with acceptor substrate (in words) (C2/4GnT) | Substrate specificity: C2GnT activity, 2 mM (C2GnT) [nmol/h/mg] | Substrate specificity: C2GnT activity, 10 mM (C2GnT) [nmol/h/mg] | Substrate inhibition of C2/4GnT enzyme activity (C2/4GnT) | C2/4GnT activity with donor substrate (in words) (C2/4GnT)
1 | CC(=O)N[C@H]1[C@@H](Oc2ccc([N+](=O)[O-])cc2)O[C@H](CO)[C@H](O)[C@@H]1O [α-D-GalNAc-1-p-Nph] | <0.1 | <0.1 | no activity | <0.1 | <0.1 | – | –
2 | CC(=O)N[C@H]1[C@@H](Oc2ccc([N+](=O)[O-])cc2)O[C@H](CO)[C@H](O)[C@@H]1O[C@@H]1O[C@H](CO)[C@H](O)[C@H](O)[C@H]1O [β-D-Gal-(1-3)-α-D-GalNAc-1-p-Nph] | 16.1 | 21.8 | – | 16.2 | 23.6 | No substrate inhibition | –
3 | CC(=O)N[C@H]1[C@@H](OP(=O)(O)OP(=O)(O)OC[C@H]2O[C@@H](n3ccc(=O)[nH]c3=O)[C@H](O)[C@@H]2O)O[C@H](CO)[C@@H](O)[C@@H]1O [UDP-GlcNAc, UDP-N-acetylglucosamine] | – | – | – | – | – | – | strict donor substrate specificity
4 | CC(=O)N[C@H]1[C@@H](OP(=O)(O)OP(=O)(O)OC[C@H]2O[C@@H](n3ccc(=O)[nH]c3=O)[C@H](O)[C@@H]2O)O[C@H](CO)[C@H](O)[C@@H]1O [UDP-GalNAc] | – | – | – | – | – | – | no activity
5 | CC(=O)N[C@@H]1[C@@H](O[C@@H]2O[C@H](CO)[C@H](O)[C@H](O)[C@H]2O)[C@@H](O)[C@@H](CO)O[C@@H]1O [β-D-Gal-(1-3)-α-D-GalNAc] | 2.8 | 7.3 | – | 9.6 | 19.0 | – | –
6 | CC(=O)N[C@H]1C(O)O[C@H](CO)[C@H](O)[C@@H]1O (stereo partly drawn) [D-GalNAc] | <0.1 | <0.1 | – | <0.1 | <0.1 | – | –
7 | CC(=O)NC1C(OC2C(O)C(CO)OC(Oc3ccc([N+](=O)[O-])cc3)C2NC(C)=O)OC(CO)C(O)C1O [β-D-GlcNAc-(1-3)-α-D-GalNAc-1-p-Nph] | 5.2 | 7.4 | – | <0.1 | <0.1 | No substrate inhibition | –
8 | CC(=O)N[C@H]1[C@H](O[C@H]2[C@@H](O)[C@@H](CO)O[C@@H](O[C@H]3[C@H](O)[C@@H](O)C(O)O[C@@H]3CO)[C@@H]2O)O[C@H](CO)[C@@H](O[C@@H]2O[C@H](CO)[C@H](O)[C@H](O)[C@H]2O)[C@@H]1O (mixture of isomers) [lacto-N-neo-tetraose] | <0.1 | <0.1 | no activity | <0.1 | <0.1 | – | –
9 | CO[C@@H]1O[C@H](CO)[C@H](O)[C@H](O[C@@H]2O[C@H](CO)[C@@H](O)[C@H](O)[C@H]2NC(C)=O)[C@H]1O [β-D-GlcNAc-(1-3)-β-D-Gal-1-Me] | <0.1 | <0.1 | no activity | <0.1 | <0.1 | – | –
